The values that follow come from patent publication US4537614A, “S-aryl and S-aliphatic diamidophosphorothiolates as urease inhibitors and urease inhibited urea based fertilizer compositions” (Allied Corporation, priority 1984, dated 1985).

The subject of assay [1] is urease. In words: Urease Inhibiting Efficacy Test in New York soil (Cazenovia silt loam, pH 7.2). In kind it is biochemical. Particulars: 25° C., 3 days, remaining urea. The procedure:
(§1) Representative compounds were tested to evaluate their efficacy in the inhibition of urease as compared to structurally similar compounds. The inhibition tests were run in a New York soil (Cazenovia silt loam, pH 7.2) and a Wisconsin soil (Plano silt loam, pH 5.4). […] The bottle was capped with perforated aluminum foil and incubated at 25° C. for 3 days prior to extraction with 100 mL of a 2M potassium chloride solution containing 0.5 mg of phenylmercuric acetate. The extracts were then analyzed for remaining urea using an autoanalyzer. Percent inhibition was calculated as
(§2) % Inhibition=[1-(A-B/A-C)]×100%
(§3) where A is urea recovered from unincubated sample (urea added to soil and immediately extracted); B is urea recovered from inhibited sample; and C is urea recovered from the control (uninhibited sample).

Assay [2] deals with urease. In words: Urease Inhibiting Efficacy Test in Wisconsin soil (Plano silt loam, pH 5.4). In kind it is biochemical. Particulars: 25° C., 3 days, remaining urea. Here is the method: as §1, §2, §3
Assay [3] has as its system urease. In words: Efficacy as urease inhibitor, general statement (long term residual activity). The conditions noted are these: primarily because of relatively long term residual activity.
Setting [4] is: 200 micrograms test compound (footnote *) + 42.8 mg urea per 20 g air dry soil.
The mark [5] stands for this setting: 800 micrograms test compound + 42.8 mg urea per 20 g air dry soil.

Consider `CCC(C)SP(N)(N)=O` (stereo not drawn) [Experiment 3, S-(2-Butyl) Diamidophosphorothiolate], for which, in assay [1] (setting [4]), the “% Inhibition Cazenovia Soil” value came out at 74%. Moreover, the “% Inhibition Wisconsin Soil” value in assay [2] (setting [4]) was 84%.
In the case of `CSP(N)(N)=O` [S-Methyl Diamidophosphorothiolate], in assay [1] (setting [5]), the “% Inhibition Cazenovia Soil” value amounted to 93%. Moreover, in assay [2] (setting [5]), the “% Inhibition Wisconsin Soil” value came to 93%.
As for `CCCCCCSP(N)(N)=O` [Experiment 5, S-(n-Hexyl) Diamidophosphorothiolate], in assay [1] (setting [4]), the “% Inhibition Cazenovia Soil” value turned out to be 52%. The “% Inhibition Wisconsin Soil” value in assay [2] (setting [4]) is reported as 66%. Besides, the “efficacy among the especially efficacious compounds” value in assay [3] was “most efficacious”.
For the compound `NP(N)(=O)SC1CCCCC1` [Experiment 6, S-(Cyclohexyl) Diamidophosphorothiolate], in assay [1] (setting [4]), the “% Inhibition Cazenovia Soil” value worked out at 66%. The “% Inhibition Wisconsin Soil” value in assay [2] (setting [4]) was 58%.
Regarding `CCCCSP(N)(N)=O` [Experiment 2, S-(n-Butyl) Diamidophosphorothiolate], the “% Inhibition Cazenovia Soil” value in assay [1] (setting [4]) was 74%. Also, the “% Inhibition Wisconsin Soil” value in assay [2] (setting [4]) was determined as 82%. Further, the “efficacy among the especially efficacious compounds” value in assay [3] is “most efficacious”.
On to `CCCOP(N)(N)=O` [Comp. Ex. 2, reference compound], for which the “% Inhibition Cazenovia Soil” value in assay [1] (setting [5]) is on record as 15%.
As for `CC(C)CSP(N)(N)=O` [Experiment 4, S-(iso-Butyl) Diamidophosphorothiolate], the “% Inhibition Cazenovia Soil” value in assay [1] (setting [4]) turned out to be 80%. The “% Inhibition Wisconsin Soil” value in assay [2] (setting [4]) came out at 83%. In assay [3], the “efficacy among the especially efficacious compounds” value was “most efficacious”.
Consider `COP(N)(N)=O` [Comp. Ex. 1, reference compound], for which the “% Inhibition Cazenovia Soil” value in assay [1] (setting [5]) amounted to 34%.
